# Patent publication US20240217936A1, “5-BENZY[…] AND PREPARATION METHOD THEREFOR AND USE THEREOF” (WEST CHINA HOSPITAL, SICHUAN UNIVERSITY, priority 2021, published 2024)
# Counter-ions that a name gives are not always drawn.
# Assays:
# [1] = Degradation of prodrug in rat plasma (release of dexmedetomidine, HPLC); type: in vitro ADME; conditions: 37° C.
# Protocol: The test prodrug was formulated as a 1 mg/mL of physiological saline solution, and then 100 μL of the prodrug solution was added to 900 μL of rat plasma. The test solution was vortexed for 30 s before incubation at 37° C. 50 μL of drug-containing plasma was collected at 0.5 min, 1 min, 2 min, 3 min, 5 min, 10 min, 15 min, 20 min, 30 min, and 60 min, respectively, to which was immediately added 150 μL of acetonitrile to terminate the enzymatic reaction, followed by adding the solution of internal standard telmisartan in methanol (30 μL, 20 μg/mL). Then, the resultant solution was centrifuged at 20000 rpm and 4° C. for 10 min. 100 μL of the supernatant was injected for detection by HPLC, and the concentration of dexmedetomidine was determined by an internal standard method. The degradation rate of the prodrug was calculated based on the concentration of dexmedetomidine. The chromatographic conditions are: Swell XDB C18 column (150 mm×4.6 mm, 5 μm); column temperature 30° C.; using gradient elution (see Table 1), mobile phase A: methanol, mobile phase B: 0.1% trifluoroacetic acid in water, and mobile phase C: acetonitrile; detection wavelength: 220 nm; flow rate: 1.0 mL/min; injection volume: 30 μL; retention time: 4.7 minutes for dexmedetomidine and 6.7 minutes for internal standard telmisartan. The linear range of dexmedetomidine: 2.5-100 μg/mL. Instruments: Waters 2695 high-performance liquid chromatograph, Waters 2996 photodiode array detector.
# Male SD rats [2] = assay: Blood pressure change after tail vein injection (mean arterial pressure); conditions: dosage 2× ED50, injection within 15 seconds, 60 min recording, rats under isoflurane
# Protocol: Male SD rats weighing 250-300 g were randomly divided into groups, with 10 rats in each group. General anesthesia was maintained by inhaling isoflurane. By intubating via femoral artery, blood pressure was monitored using the BL-420N biological signal collection and analysis system. minutes after blood pressure stabilization, the baseline mean arterial pressure (MAP0) was measured. Subsequently, the physiological saline solution of each test drug was injected via the tail vein (the dosage of each drug was the same as that in Experiment example 2, with a unified injection […] volume of 1 mL). […] All prodrug molecules were injected within 15 seconds. After injection of each drug, the change in blood pressure was continuously recorded for 60 min. […] The difference MAPΔ+ between the baseline mean arterial pressure (MAP0) and the highest mean arterial pressure (MAPmax) during the 60 min measurement time was calculated; the difference MAPΔ− between the baseline mean arterial pressure (MAP0) and the lowest mean arterial pressure (MAPmin) during the 60 min measurement time was also obtained; both of the difference values were used to calculate the maximum increase rate of mean arterial pressure +Δ%=MAPΔ+/MAP0*100% and the maximum decrease rate of mean arterial pressure −Δ%=MAPΔ−/MAP0*100%, respectively. The maximum increase rate of mean arterial pressure +Δ% and the maximum decrease rate −Δ% reflect the degree of blood pressure change that the body experienced after administration. The larger the value, the greater the blood pressure change that the body experienced.
# Male SD rats [3] = assay: Hypnotic effect after tail vein injection (loss of righting reflex); type: in vivo, rat; conditions: for ED50: Rattus norvegicus, 50% of the dose for the disappearance of righting reflex in rats, tail vein injection; for Onset time: tail vein injection of 2× ED50, loss of righting reflex; for Onset time / Duration: rats; for Duration: tail vein injection of 2× ED50, until recovery of righting reflex
# Protocol: Male SD rats, weighing 250-300 g, were randomly divided into groups, with 10 rats in each group. […] The onset times and the duration of hypnosis were recorded.
structure (smiles),measurement,setting,value
Cc1cccc([C@H](C)c2cn(COC(=O)C(C)C)cn2)c1C [Compound 2-HCl],Degradation rate of prodrug %,[1]; 0.5 min,35%
same,Degradation rate of prodrug %,[1]; 1 min,57%
same,Degradation rate of prodrug %,[1]; 2 min,87%
same,Degradation rate of prodrug %,[1]; 3 min,94%
same,Degradation rate of prodrug %,[1]; 5 min,100%
same,+Δ % (The maximum increase rate of blood pressure),Male SD rats [2],*19 ± 11%
same,−Δ % (The maximum decrease rate of blood pressure),Male SD rats [2],32 ± 5%
same,ED50,Male SD rats [3],0.043 mg/kg
same,Onset time,Male SD rats [3],1.1 ± 0.2 min
same,Duration,Male SD rats [3],63 ± 15 min
Cc1cccc([C@H](C)c2cn(COC(=O)C(C)(C)C)cn2)c1C [Compound 3-HCl],Degradation rate of prodrug %,[1]; 0.5 min,36%
same,Degradation rate of prodrug %,[1]; 1 min,73%
same,Degradation rate of prodrug %,[1]; 2 min,87%
same,Degradation rate of prodrug %,[1]; 3 min,96%
same,Degradation rate of prodrug %,[1]; 5 min,100%
same,+Δ % (The maximum increase rate of blood pressure),Male SD rats [2],*13 ± 6%
same,−Δ % (The maximum decrease rate of blood pressure),Male SD rats [2],41 ± 8%
same,ED50,Male SD rats [3],0.059 mg/kg
same,Onset time,Male SD rats [3],2.6 ± 1.1 min
same,Duration,Male SD rats [3],50 ± 10 min
Cc1cccc([C@H](C)c2cn(C(=O)OC(C)C)cn2)c1C [Compound 5-HCl],Degradation rate of prodrug %,[1]; 0.5 min,36%
same,Degradation rate of prodrug %,[1]; 1 min,47%
same,Degradation rate of prodrug %,[1]; 2 min,52%
same,Degradation rate of prodrug %,[1]; 3 min,67%
same,Degradation rate of prodrug %,[1]; 5 min,89%
same,Degradation rate of prodrug %,[1]; 10 min,98%
same,Degradation rate of prodrug %,[1]; 15 min,100%
same,+Δ % (The maximum increase rate of blood pressure),Male SD rats [2],*18 ± 6%
same,−Δ % (The maximum decrease rate of blood pressure),Male SD rats [2],35 ± 5%
same,ED50,Male SD rats [3],0.037 mg/kg
same,Onset time,Male SD rats [3],3.7 ± 1.3 min
same,Duration,Male SD rats [3],61 ± 15 min
CCOC(=O)OCn1cnc([C@@H](C)c2cccc(C)c2C)c1 [Compound 6-HCl],Degradation rate of prodrug %,[1]; 0.5 min,21%
same,Degradation rate of prodrug %,[1]; 1 min,47%
same,Degradation rate of prodrug %,[1]; 2 min,76%
same,Degradation rate of prodrug %,[1]; 3 min,89%
same,Degradation rate of prodrug %,[1]; 5 min,96%
same,Degradation rate of prodrug %,[1]; 10 min,100%
same,+Δ % (The maximum increase rate of blood pressure),Male SD rats [2],*23 ± 9%
same,−Δ % (The maximum decrease rate of blood pressure),Male SD rats [2],36 ± 6%
same,ED50,Male SD rats [3],0.03 mg/kg
same,Onset time,Male SD rats [3],2.1 ± 1.1 min
same,Duration,Male SD rats [3],45 ± 8 min
Cc1cccc([C@H](C)c2cn(COC(=O)OC(C)C)cn2)c1C [Compound 7-HCl],Degradation rate of prodrug %,[1]; 0.5 min,22%
same,Degradation rate of prodrug %,[1]; 1 min,46%
same,Degradation rate of prodrug %,[1]; 2 min,67%
same,Degradation rate of prodrug %,[1]; 3 min,88%
same,Degradation rate of prodrug %,[1]; 5 min,97%
same,Degradation rate of prodrug %,[1]; 10 min,100%
same,+Δ % (The maximum increase rate of blood pressure),Male SD rats [2],*17 ± 8%
same,−Δ % (The maximum decrease rate of blood pressure),Male SD rats [2],37 ± 8%
same,ED50,Male SD rats [3],0.036 mg/kg
same,Onset time,Male SD rats [3],4.6 ± 1.3 min
same,Duration,Male SD rats [3],39 ± 11 min
CCCC(=O)OCn1cnc([C@@H](C)c2cccc(C)c2C)c1 [Compound 8-HCl],Degradation rate of prodrug %,[1]; 0.5 min,76%
same,Degradation rate of prodrug %,[1]; 1 min,89%
same,Degradation rate of prodrug %,[1]; 2 min,97%
same,Degradation rate of prodrug %,[1]; 3 min,100%
same,+Δ % (The maximum increase rate of blood pressure),Male SD rats [2],*18 ± 8%
same,−Δ % (The maximum decrease rate of blood pressure),Male SD rats [2],31 ± 7%
same,ED50,Male SD rats [3],0.024 mg/kg
same,Onset time,Male SD rats [3],4.1 ± 2.4 min
same,Duration,Male SD rats [3],31 ± 13 min
CCC(=O)OCn1cnc([C@@H](C)c2cccc(C)c2C)c1 [Compound 10-HCl],Degradation rate of prodrug %,[1]; 0.5 min,57%
same,Degradation rate of prodrug %,[1]; 1 min,82%
same,Degradation rate of prodrug %,[1]; 2 min,85%
same,Degradation rate of prodrug %,[1]; 3 min,97%
same,Degradation rate of prodrug %,[1]; 5 min,100%
same,+Δ % (The maximum increase rate of blood pressure),Male SD rats [2],31 ± 7%
same,−Δ % (The maximum decrease rate of blood pressure),Male SD rats [2],40 ± 8%
same,ED50,Male SD rats [3],0.028 mg/kg
same,Onset time,Male SD rats [3],2.3 ± 1.1 min
same,Duration,Male SD rats [3],48 ± 12 min
CCCOC(=O)n1cnc([C@@H](C)c2cccc(C)c2C)c1 [Compound 11-HCl],Degradation rate of prodrug %,[1]; 0.5 min,26%
same,Degradation rate of prodrug %,[1]; 1 min,57%
same,Degradation rate of prodrug %,[1]; 2 min,74%
same,Degradation rate of prodrug %,[1]; 3 min,75%
same,Degradation rate of prodrug %,[1]; 5 min,82%
same,Degradation rate of prodrug %,[1]; 10 min,88%
same,Degradation rate of prodrug %,[1]; 15 min,95%
same,Degradation rate of prodrug %,[1]; 20 min,100%
same,+Δ % (The maximum increase rate of blood pressure),Male SD rats [2],*25 ± 7%
same,−Δ % (The maximum decrease rate of blood pressure),Male SD rats [2],41 ± 8%
same,ED50,Male SD rats [3],0.026 mg/kg
same,Onset time,Male SD rats [3],2.6 ± 0.3 min
same,Duration,Male SD rats [3],47 ± 8 min
COC(=O)OCn1cnc([C@@H](C)c2cccc(C)c2C)c1 [Compound 13-HCl],Degradation rate of prodrug %,[1]; 0.5 min,16%
same,Degradation rate of prodrug %,[1]; 1 min,44%
same,Degradation rate of prodrug %,[1]; 2 min,67%
same,Degradation rate of prodrug %,[1]; 3 min,79%
same,Degradation rate of prodrug %,[1]; 5 min,90%
same,Degradation rate of prodrug %,[1]; 10 min,96%
same,Degradation rate of prodrug %,[1]; 15 min,100%
same,+Δ % (The maximum increase rate of blood pressure),Male SD rats [2],*16 ± 8%
same,−Δ % (The maximum decrease rate of blood pressure),Male SD rats [2],39 ± 7%
same,ED50,Male SD rats [3],0.025 mg/kg
same,Onset time,Male SD rats [3],4.1 ± 1.3 min
same,Duration,Male SD rats [3],36 ± 7 min
Cc1cccc([C@H](C)c2cn(COC(=O)OC3CCC3)cn2)c1C [Compound 14-HCl],Degradation rate of prodrug %,[1]; 0.5 min,53%
same,Degradation rate of prodrug %,[1]; 1 min,80%
same,Degradation rate of prodrug %,[1]; 2 min,85%
same,Degradation rate of prodrug %,[1]; 3 min,98%
same,Degradation rate of prodrug %,[1]; 5 min,100%
same,+Δ % (The maximum increase rate of blood pressure),Male SD rats [2],31 ± 6%
same,−Δ % (The maximum decrease rate of blood pressure),Male SD rats [2],36 ± 6%
same,ED50,Male SD rats [3],0.031 mg/kg
same,Onset time,Male SD rats [3],3.9 ± 2.1 min
same,Duration,Male SD rats [3],51 ± 7 min
Cc1cccc([C@H](C)c2cn(COC(=O)C3CC3)cn2)c1C [Compound 15-HCl],Degradation rate of prodrug %,[1]; 0.5 min,18%
same,Degradation rate of prodrug %,[1]; 1 min,41%
same,Degradation rate of prodrug %,[1]; 2 min,54%
same,Degradation rate of prodrug %,[1]; 3 min,63%
same,Degradation rate of prodrug %,[1]; 5 min,87%
same,Degradation rate of prodrug %,[1]; 10 min,94%
same,Degradation rate of prodrug %,[1]; 15 min,100%
same,+Δ % (The maximum increase rate of blood pressure),Male SD rats [2],*21 ± 5%
same,−Δ % (The maximum decrease rate of blood pressure),Male SD rats [2],36 ± 6%
same,ED50,Male SD rats [3],0.03 mg/kg
same,Onset time,Male SD rats [3],3.5 ± 1.2 min
same,Duration,Male SD rats [3],43 ± 9 min
CC(=O)OC(C)n1cnc([C@@H](C)c2cccc(C)c2C)c1 (some centres unmarked) [Compound 17-HCl],Degradation rate of prodrug %,[1]; 0.5 min,12%
same,Degradation rate of prodrug %,[1]; 1 min,16%
same,Degradation rate of prodrug %,[1]; 2 min,19%
same,Degradation rate of prodrug %,[1]; 3 min,22%
same,Degradation rate of prodrug %,[1]; 5 min,29%
same,Degradation rate of prodrug %,[1]; 10 min,39%
same,Degradation rate of prodrug %,[1]; 15 min,48%
same,Degradation rate of prodrug %,[1]; 20 min,53%
same,Degradation rate of prodrug %,[1]; 30 min,58%
same,Degradation rate of prodrug %,[1]; 60 min,67%
same,+Δ % (The maximum increase rate of blood pressure),Male SD rats [2],*15 ± 4%
same,−Δ % (The maximum decrease rate of blood pressure),Male SD rats [2],35 ± 6%
same,ED50,Male SD rats [3],0.029 mg/kg
same,Onset time,Male SD rats [3],1.8 ± 0.7 min
same,Duration,Male SD rats [3],42 ± 12 min
CCC(=O)OC(C)n1cnc([C@@H](C)c2cccc(C)c2C)c1 (some centres unmarked) [Compound 18-HCl],Degradation rate of prodrug %,[1]; 0.5 min,17%
same,Degradation rate of prodrug %,[1]; 1 min,33%
same,Degradation rate of prodrug %,[1]; 2 min,42%
same,Degradation rate of prodrug %,[1]; 3 min,48%
same,Degradation rate of prodrug %,[1]; 5 min,54%
same,Degradation rate of prodrug %,[1]; 10 min,59%
same,Degradation rate of prodrug %,[1]; 15 min,64%
same,Degradation rate of prodrug %,[1]; 20 min,69%
same,Degradation rate of prodrug %,[1]; 30 min,72%
same,Degradation rate of prodrug %,[1]; 60 min,75%
same,+Δ % (The maximum increase rate of blood pressure),Male SD rats [2],29 ± 12%
same,−Δ % (The maximum decrease rate of blood pressure),Male SD rats [2],34 ± 8%
same,ED50,Male SD rats [3],0.036 mg/kg
same,Onset time,Male SD rats [3],2.4 ± 0.9 min
same,Duration,Male SD rats [3],41 ± 10 min
Cc1cccc([C@H](C)c2cn(COC(=O)OC3CC3)cn2)c1C [Compound 22-HCl],Degradation rate of prodrug %,[1]; 0.5 min,91%
same,Degradation rate of prodrug %,[1]; 1 min,97%
same,Degradation rate of prodrug %,[1]; 2 min,100%
same,+Δ % (The maximum increase rate of blood pressure),Male SD rats [2],34 ± 7%
same,−Δ % (The maximum decrease rate of blood pressure),Male SD rats [2],39 ± 6%
same,ED50,Male SD rats [3],0.024 mg/kg
same,Onset time,Male SD rats [3],1.5 ± 0.2 min
same,Duration,Male SD rats [3],48 ± 9 min
